Tests used:
μ-opioid receptor [1] = target: T1, μ-opioid receptor (Homo sapiens, UniProt P35372); test: μ-opioid receptor radioligand ([3H]-diprenorphine) dose-displacement binding assay, HEK-293 or CHO cells
Protocol: Radioligand dose-displacement binding assays for μ-opioid receptors used 0.3 nM [^3H]-diprenorphine (Perkin Elmer, Shelton, Conn.), with […] membrane protein/well in a final volume of 500 μl binding buffer (10 mM MgCl2, 1 mM EDTA, 5% DMSO, 50 mM HEPES, pH 7.4). Reactions were carried out in the absence or presence of increasing concentrations of unlabeled naloxone. All reactions were conducted in 96-deep well polypropylene plates for 2 hr at room temperature. Binding reactions were terminated by rapid filtration onto 96-well Unifilter GF/C filter plates (Perkin Elmer, Shelton, Conn.), presoaked in 0.5% polyethylenimine using a 96-well tissue harvester (Perkin Elmer, Shelton, Conn.) followed by performing three filtration washes with 500 μl of ice-cold binding buffer. Filter plates were subsequently dried at 50° C. for 2-3 hours. BetaScint scintillation cocktail (Perkin Elmer, Shelton, Conn.) was added (50 l/well), and plates were counted using a Packard Top-Count for 1 min/well. The data were analyzed using the one-site competition curve fitting functions in GraphPad PRISM™ v. 3.0 or higher (San Diego, Calif.), or an in-house function for one-site competition curve-fitting.
(§1) In TABLE 1, binding affinity of certain Compounds of the Invention to the μ-, and κ-opioid receptors in HEK-293 or CHO cells was determined as described above.

μ-opioid receptor [2] = target: T1, μ-opioid receptor; test: μ-opioid receptor [35S]GTPγS functional assay, HEK-293 or CHO cells; type: biochemical; settings: for Emax: HEK-293 or CHO cells, relative to DAMGO
Method in brief: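 Agonist-stimulated [35S]GTPγS binding to recombinant μ-receptor membranes (HEK-293 or CHO) with 0.20 nM [35S]GTPγS, […] and saponin, pH 7.4, 30 min at about 25 °C, then filtration and scintillation counting. EC50 from sigmoidal fits; Emax relative to DAMGO.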

human κ opioid receptor [3] = target: T2, human κ opioid receptor (Homo sapiens, UniProt P41145); test: κ-opioid receptor [35S]GTPγS functional assay, HEK-293 or CHO cells; type: biochemical; parameters: expressed in transfected cells; settings: for Emax: HEK-293 or CHO cells, relative to U69,593
T2 sequence (P41145 whole entry): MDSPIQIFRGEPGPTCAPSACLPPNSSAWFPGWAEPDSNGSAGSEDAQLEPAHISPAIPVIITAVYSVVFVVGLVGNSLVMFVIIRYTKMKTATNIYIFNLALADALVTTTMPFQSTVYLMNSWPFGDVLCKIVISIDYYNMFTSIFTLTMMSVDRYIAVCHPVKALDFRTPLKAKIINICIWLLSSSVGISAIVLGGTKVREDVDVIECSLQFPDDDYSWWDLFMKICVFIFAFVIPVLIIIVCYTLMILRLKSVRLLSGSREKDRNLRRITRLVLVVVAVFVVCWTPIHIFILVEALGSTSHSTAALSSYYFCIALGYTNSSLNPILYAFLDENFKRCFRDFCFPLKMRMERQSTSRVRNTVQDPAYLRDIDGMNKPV
Protocol: Membranes from recombinant HEK-293 cells, CHO or U-2 OS cells expressing the recombinant human K opioid receptor (K) were prepared by lysing cells in ice cold hypotonic buffer (2.5 mM MgCl2, 50 mM HEPES, pH 7.4) (10 mL/10 cm dish) followed by homogenization with a tissue grinder/Teflon pestle. Functional [^35S]GTPγS binding assays were conducted as follows. K opioid receptor membrane solution was prepared by sequentially adding final concentrations of 0.026 μg/μl κ membrane protein (in-house), 10 μg/mL saponin, 3 μM GDP and 0.20 nM [^35S]GTPγS to binding buffer (100 mM NaCl, 10 mM MgCl2, 20 mM HEPES, pH 7.4) on ice. The prepared membrane solution (190 μl/well) was transferred to 96-shallow well polypropylene plates containing 10 μl of 20× concentrated stock solutions of agonist prepared in DMSO. Plates were incubated for 30 min at a temperature of about 25° C. with shaking. Reactions were terminated by rapid filtration onto 96-well Unifilter GF/B filter plates (Perkin Elmer, Shelton, Conn.) using a 96-well tissue harvester (Packard) and followed by three filtration washes with 200 μl ice-cold binding buffer (10 mM NaH2PO4, 10 mM Na2HPO4, pH 7.4). Filter plates were subsequently dried at 50° C. for 2-3 hours. Fifty μl/well scintillation cocktail (Perkin Elmer, Shelton, Conn.) was added and plates were counted in a Packard Top-Count for 1 min/well.
κ GTP EC50 is the concentration of a compound providing 50% of the maximal response for the compound at a κ receptor.
κ GTP Emax (%) is the maximal effect elicited by a compound relative to the effect elicited by U69,593.
In TABLE 2, activity response of certain Compounds of the Invention at the μ- and κ-opioid receptors using HEK-293 or CHO cells was determined as described above for functional assays.

human κ opioid receptor [4] = target: T2, human κ opioid receptor; test: κ-opioid receptor radioligand ([3H]-U69,593) dose-displacement binding assay, HEK-293 or CHO cells; parameters: expressed in transfected cells; host or cells: HEK-293 cells (in-house prep)
Protocol: Membranes from recombinant HEK-293 cells expressing the human K opioid receptor (cloned in house) were prepared by lysing cells in ice cold hypotonic buffer (2.5 mM MgCl2, 50 mM HEPES, pH 7.4) (10 mL/10 cm dish) followed by homogenization with a tissue grinder/Teflon pestle. Membranes were collected by centrifugation at 30,000×g for 15 min at 4° C. and pellets were resuspended in hypotonic buffer to a final concentration of 1-3 mg/mL. Protein concentrations were determined using the BioRad protein assay reagent with bovine serum albumen as standard. Aliquots of κ receptor membranes were stored at −80° C.
Radioligand dose displacement assays used 0.4 nM [^3H]-U69,593 (GE Healthcare, Piscataway, N.J.; 40 Ci/mmole) with 15 μg membrane protein (recombinant K opioid receptor expressed in HEK 293 cells; in-house prep) in a final volume of 200 μl binding buffer (5% DMSO, 50 mM Trizma base, pH 7.4). Non-specific binding was determined in the presence of 10 μM unlabeled naloxone or U69,593. All reactions were performed in 96-well polypropylene plates for 1 hr at a temperature of about 25° C. Binding reactions were terminated by rapid filtration onto 96-well Unifilter GF/C filter plates (Perkin Elmer, Shelton, Conn.) presoaked in 0.5% polyethylenimine (Sigma). Harvesting was performed using a 96-well tissue harvester (Perkin Elmer, Shelton, Conn.) followed by five filtration washes with 200 μl ice-cold binding buffer. Filter plates were subsequently dried at 50° C. for 1-2 hours. Fifty μl/well scintillation cocktail (Perkin Elmer, Shelton, Conn.) was added and plates were counted in a Packard Top-Count for 1 min/well.
as §1

μ-opioid receptor [5] = target: T1, μ-opioid receptor; test: μ-opioid receptor [35S]GTPγS functional assay, U-2 OS cells; type: biochemical; parameters: host or cells: U-2 OS cells; settings: for Emax: U2-OS cells, relative to DAMGO
Method in brief: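 U-2 OS membranes expressing recombinant human μ-receptor (0.026 mg/mL) were incubated with compound, […], saponin and [35S]GTPγS 0.20 nM in HEPES/NaCl/MgCl2 buffer pH 7.4 for 30 min at about 25° C. Filter-bound radioactivity gave sigmoidal fits for EC50; Emax is relative to DAMGO.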

human κ opioid receptor [6] = target: T2, human κ opioid receptor; test: κ-opioid receptor [35S]GTPγS functional assay, U-2 OS cells; type: biochemical; parameters: expressed in transfected cells; host or cells: U-2 OS cells (in-house membranes); settings: for Emax: U2-OS cells, relative to U69,593
Method in brief: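 Membranes from U-2 OS cells expressing human κ receptor (0.026 μg/μl protein) were incubated with agonist, 10 μg/mL saponin, 3 μM GDP and 0.20 nM [35S]GTPγS in pH 7.4 HEPES buffer for 30 min at about 25 °C. Bound radioactivity was measured after filtration. EC50 was taken at half-maximal response; Emax is relative to U69,593.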

T1 sequence (P35372 whole entry, species assumed): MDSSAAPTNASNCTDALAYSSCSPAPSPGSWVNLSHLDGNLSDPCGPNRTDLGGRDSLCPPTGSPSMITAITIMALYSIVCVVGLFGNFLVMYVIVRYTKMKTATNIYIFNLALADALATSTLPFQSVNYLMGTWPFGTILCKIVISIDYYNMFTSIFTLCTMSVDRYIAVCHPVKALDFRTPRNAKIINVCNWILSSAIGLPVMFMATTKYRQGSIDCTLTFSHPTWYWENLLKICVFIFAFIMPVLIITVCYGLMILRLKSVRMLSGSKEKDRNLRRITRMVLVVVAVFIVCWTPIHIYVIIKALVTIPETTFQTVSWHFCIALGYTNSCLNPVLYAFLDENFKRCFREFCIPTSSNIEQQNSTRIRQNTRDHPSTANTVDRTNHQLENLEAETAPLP

SMILES: COc1ccc2c(c1)[C@]13CCN(CC4CC4)[C@H](C2)[C@]1(O)CC[C@H](O)C3 [Compound 4, (4bR,6S,8aS,9R)-11-(cyclopropylmethyl)-3-methoxy-5,6,7,8,9,10-hexahydro-8aH-9,4b-(epiminoethano)phenanthrene-6,8a-diol]
- Ki (μ-opioid receptor [1]): 4590 ± 356 nM
- EC50 (μ-opioid receptor [2]): 6.14 µM
- Emax (μ-opioid receptor [2]): 33.7 ± 2.96%
- EC50 (human κ opioid receptor [3]): 7860 nM
- Emax (human κ opioid receptor [3]): 55.8 ± 5.88%
- Ki (human κ opioid receptor [4]): 172 ± 12.8 nM

SMILES: CC(=O)N[C@H]1C[C@@]2(O)[C@H]3Cc4ccc(O)cc4[C@@]2(CCN3CC2CC2)C[C@H]1O [Compound 55, N-((4bR,6R,7S,8aS,9R)-11-(cyclopropylmethyl)-3,6,8a-trihydroxy-6,7,8,8a,9,10-hexahydro-5H-9,4b-(epiminoethano)phenanthren-7-yl)acetamide]
- Ki (μ-opioid receptor [1]): 201 ± 62.1 nM
- EC50 (μ-opioid receptor [2]): > 20 µM
- Emax (μ-opioid receptor [2]): 1%
- EC50 (μ-opioid receptor [5]): > 20000 nM
- Emax (μ-opioid receptor [5]): 4%
- EC50 (human κ opioid receptor [3]): 203 ± 20.2 nM
- Emax (human κ opioid receptor [3]): 13.3 ± 0.88%
- EC50 (human κ opioid receptor [6]): 194 ± 54.4 nM
- Emax (human κ opioid receptor [6]): 77.7 ± 5.49%
- Ki (human κ opioid receptor [4]): 54.8 ± 8.83 nM

SMILES: CCC(=O)N[C@H]1C[C@@]2(O)[C@H]3Cc4ccc(O)cc4[C@@]2(CCN3CC2CC2)C[C@H]1O [Compound 56, N-((4bR,6R,7S,8aS,9R)-11-(cyclopropylmethyl)-3,6,8a-trihydroxy-6,7,8,8a,9,10-hexahydro-5H-9,4b-(epiminoethano)phenanthren-7-yl)propionamide]
- Ki (μ-opioid receptor [1]): 54.2 ± 12.5 nM
- EC50 (μ-opioid receptor [2]): > 20 µM
- Emax (μ-opioid receptor [2]): 1%
- EC50 (μ-opioid receptor [5]): 95 ± 16.4 nM
- Emax (μ-opioid receptor [5]): 19.3 ± 1.45%
- EC50 (human κ opioid receptor [3]): 71.8 ± 8.76 nM
- Emax (human κ opioid receptor [3]): 53 ± 0.58%
- EC50 (human κ opioid receptor [6]): 29.3 ± 4.34 nM
- Emax (human κ opioid receptor [6]): 105 ± 3.38%
- Ki (human κ opioid receptor [4]): 7.19 ± 0.87 nM

SMILES: CCC(=O)N[C@H]1C[C@@]2(O)[C@H]3Cc4ccc(O)cc4[C@@]2(CCN3CC2CC2)C[C@@H]1O [Compound 57, N-((4bR,6S,7S,8aS,9R)-11-(cyclopropylmethyl)-3,6,8a-trihydroxy-6,7,8,8a,9,10-hexahydro-5H-9,4b-(epiminoethano)phenanthren-7-yl)propionamide]
- Ki (μ-opioid receptor [1]): 44.9 ± 7.71 nM
- EC50 (μ-opioid receptor [2]): > 20 µM
- Emax (μ-opioid receptor [2]): 1.5%
- EC50 (μ-opioid receptor [5]): 77.7 ± 10.3 nM
- Emax (μ-opioid receptor [5]): 9 ± 0.58%
- EC50 (human κ opioid receptor [3]): 26.1 ± 6.87 nM
- Emax (human κ opioid receptor [3]): 37.2 ± 3.07%
- EC50 (human κ opioid receptor [6]): 33.1 ± 3.53 nM
- Emax (human κ opioid receptor [6]): 113 ± 5.86%
- Ki (human κ opioid receptor [4]): 16.7 ± 2.61 nM

SMILES: CC(C)CCCC(=O)N[C@H]1C[C@@]2(O)[C@H]3Cc4ccc(O)cc4[C@@]2(CCN3CC2CC2)CC1O (stereo partly drawn) [Compound 63, N-((4bR,7S,8aS,9R)-11-(cyclopropylmethyl)-3,6,8a-trihydroxy-6,7,8,8a,9,10-hexahydro-5H-9,4b-(epiminoethano)phenanthren-7-yl)-5-methylhexanamide]
- EC50 (μ-opioid receptor [2]): 0.0812 ± 0.00825 µM
- Emax (μ-opioid receptor [2]): 23.3 ± 1.33%
- EC50 (μ-opioid receptor [5]): 63.2 ± 8.31 nM
- Emax (μ-opioid receptor [5]): 58.7 ± 1.33%
- EC50 (human κ opioid receptor [3]): 23 ± 4.32 nM
- Emax (human κ opioid receptor [3]): 21.2 ± 0.44%
- EC50 (human κ opioid receptor [6]): 38.8 ± 7.82 nM
- Emax (human κ opioid receptor [6]): 84.3 ± 1.67%
- Ki (human κ opioid receptor [4]): 11.5 ± 0.97 nM

Source: patent publication US20200148646A1, “6-S[…] 7-S[…] ANALOGS AND THE USE THEREOF” (Purdue Pharma, L.P., priority 2013, published 2020)
